Consider 15 compounds from ChEMBL document CHEMBL4000207 (Bioorg Med Chem Lett, 2017).

Structures are written as SMILES. ≈ marks a conversion by molar mass, not a printed value.

Data set [1] in a line: Lipophilicity, log D of the compound. Particulars: octanol/water. Type of data set: physicochemical.
Data set [2] is described as follows: in vitro. Particulars: human, liver microsomes.
The nature of data set [3]: in vitro. Particulars: human, Caco-2.
Data set [4] can be described thus: Solubility of the compound. It is filed as physicochemical.
A short description of data set [5]: Intrinsic clearance in rat hepatocytes assessed per million cells. Type of data set: ADME, cell-based, Hepatocyte. Particulars: read-out: CLH.
A short description of data set [6]: Volume of distribution at steady state in iv dosed rat. It is filed as ADME, organism-based. Particulars: in vivo, read-out: Vdss.
A short description of data set [7]: Oral bioavailability in rat. Type of data set: ADME, organism-based. Particulars: in vivo.
Data set [8] is described as follows: Clearance in iv dosed rat. Type of data set: ADME, organism-based. The following applies: in vivo.
The nature of data set [9]: Half life in iv dosed rat. Type of data set: ADME, organism-based. The following applies: in vivo.

The compound `Cn1nc(-c2cnc(N)c(-c3cnn(C(N)=O)c3)n2)nc1C1(c2ccccc2)CC1` gave a log distribution coefficient (logD) in [1] of 2.2.

In data set [1], `Cn1nc(-c2cnc(N)c(-n3nnc4ccccc43)n2)nc1C1(c2ccccc2)CC1` came in with a logD of 4.3.

On to `Cn1nc(-c2cnc(N)c(-c3cc[nH]n3)n2)nc1C1(c2ccccc2)CC1`, for which the pH-dependent lipophilicity (logD) in data set [1] turned out to be 3.

Consider `Cn1nc(-c2cnc(N)c(-n3ccc(C(N)=O)n3)n2)nc1C1(c2ccccc2)CC1`, for which, in data set [1], the logD was 2.8.

`Cn1nc(-c2cnc(N)c(-c3ccc(F)nc3)n2)nc1C1(c2ccccc2)CC1` had a log distribution coefficient (logD) in [1] of 2.5.

In the case of `Cn1nc(-c2cnc(N)c(-c3ccc(N)nc3)n2)nc1C1(c2ccccc2)CC1`, the pH-dependent lipophilicity (logD) in [1] was determined as 2.

In data set [1], `CN(C)S(=O)(=O)n1cc(-c2nc(-c3nc(C4(c5ccccc5)CC4)n(C)n3)cnc2N)cn1` had a logD of 2.8. In “in vitro [2]”, this compound returned a microsomal CLint of 191 µL/min/mg. The apparent permeability from apical to basolateral (Papp A→B) in the data set “in vitro [3]” worked out at 19 ×10⁻⁶ cm/s. The solubility in data set [4] was determined as 11 µM (≈ 5.12 µg/mL). For the same compound, the hepatocyte CLint in data set [5] came to 157 µL/min/1e6 cells.

In data set [1], `Cn1nc(-c2cnc(N)cn2)nc1C1(c2ccccc2)CC1` came in with a log distribution coefficient (logD) of 1.8.

For the compound `Cc1n[nH]c(C)c1-c1nc(-c2nc(C3(c4ccccc4)CC3)n(C)n2)cnc1N`, the logD in [1] turned out to be 2.3.

`Cn1nc(-c2cnc(N)c(-c3nnc(C(C)(C)C)o3)n2)nc1C1(c2ccccc2)CC1` showed a logD in data set [1] of 3.6. In “in vitro [2]”, this compound came in with a microsomal CLint of 20 µL/min/mg. Also, the Papp A→B in “in vitro [3]” came to 24 ×10⁻⁶ cm/s. In addition, the concentration in solution in data set [4] (solubility) came to 3 µM (≈ 1.25 µg/mL). For the same compound, the hepatocyte CLint in data set [5] is 12 µL/min/1e6 cells.

In the case of `Cn1nc(-c2cnc(N)c(-c3cn[nH]c3)n2)nc1C1(c2ccccc2)CC1`, in [1], the log distribution coefficient (logD) came to 2.1. Also, the intrinsic metabolic clearance (microsomal CLint) in the data set “in vitro [2]” was less than 3 µL/min/mg. The same compound displayed an apical-to-basolateral permeability (Papp A→B) in the data set “in vitro [3]” of 6.6 ×10⁻⁶ cm/s. This compound also registered a solubility in [4] of 37 µM (≈ 13.3 µg/mL). In [5], the hepatocyte CLint was 5 µL/min/1e6 cells.

For the compound `Cn1nc(-c2cnc(N)c(-c3ccc(C(N)=O)cc3)n2)nc1C1(c2ccccc2)CC1`, in data set [1], the logD came to 2.2. Also, the microsomal CLint in the data set “in vitro [2]” was less than 3 µL/min/mg. The apical-to-basolateral permeability (Papp A→B) in “in vitro [3]” was 2 ×10⁻⁶ cm/s. Also, the concentration in solution in data set [4] (solubility) was 177 µM (≈ 72.8 µg/mL). Moreover, in [5], the hepatocyte CLint was found to be 2 µL/min/1e6 cells.

Compound `Cn1nc(-c2cnc(N)c(C#N)n2)nc1C1(c2ccccc2)CC1` had a logD in data set [1] of 2.2.

With `Cn1nc(-c2cnc(N)c(-n3cc(C(N)=O)cn3)n2)nc1C1(c2ccccc2)CC1`, the logD in [1] turned out to be 2.8.

For `Cn1nc(-c2cnc(N)c(-c3ccc(C(N)=O)c(F)c3)n2)nc1C1(c2ccccc2)CC1`, the logD in data set [1] was 2.2. The Vd in data set [6] stood at 2.8 L/kg. The bioavailability in data set [7] was 41%. The clearance in [8] worked out at 12 mL/min/kg. The microsomal CLint in “in vitro [2]” was less than 3 µL/min/mg. Moreover, the half-life in data set [9] is 3.4 h. This compound also gave a Papp A→B in “in vitro [3]” of 13 ×10⁻⁶ cm/s. Moreover, in data set [4], the concentration in solution (solubility) came to 32 µM (≈ 13.7 µg/mL). Further, in data set [5], the hepatocyte CLint is less than 1 µL/min/1e6 cells.

For orientation: logD means the decadic logarithm of the distribution of all forms, ionised or not, between an organic phase and buffer at a given pH. A lower logD goes with a more hydrophilic compound. What is called microsomal CLint is the rate of metabolic loss divided by the concentration. A lower microsomal CLint goes with greater metabolic stability. For orientation: Papp A→B means how fast a substance crosses the layer from the apical side. A higher Papp A→B goes with ready permeation. One may read the solubility as the dissolved amount per volume that the medium holds. A high value points to much dissolved substance. For orientation: bioavailability means dose-corrected exposure relative to a reference, in per cent. Read a high bioavailability as good availability. As a reminder, the clearance is the rate of elimination divided by the concentration. By half-life is commonly meant the time needed for the level to fall by half in the phase considered.
